These compounds were tested against WT HIV-1 protease (Human immunodeficiency virus type 1 group M subtype B (isolate HXB2) (HIV-1), UniProt P04585) (assay: Assay for inhibition of microbial expressed HIV protease (Procedure A, peptide substrate, HPLC fluorescence detection)). Details: WT HIV-1 protease 10 pM, substrate 400 micromolar, pH 5.5, 30 min preincubation, 1 hour at 30° C.; read-out: Enzyme inhibition IC50.
Assay type: biochemical
Procedure: The inhibition of WT HIV-1 protease was studied using the reaction of the protease (expressed in Eschericia coli) with a peptide substrate [Val-Ser-Gln-Asn-(betanaphthyl)Ala-Pro-Ile-Val (SEQ ID NO:1)]. Compounds were tested using Procedure A. In Procedure A, the test compound was first preincubated with the enzyme in assay buffer (50 mM sodium acetate, pH 5.5, 100 mM NaCl, and 0.1% BSA) for 30 minutes at room temperature. Substrate was then added to 400 micromolar in a total volume of 80 microliters containing 10 picomolar HIV-1 protease and the reaction was incubated for 1 hour at 30° C. The reaction was quenched with the addition of 120 microliters of 10% phosphoric acid. The product formation was determined after separation of product and substrate on a Zorbax Eclipse XDB-C18 column (Agilent Technologies, Santa Clara, Calif.) connected to an Agilent 1100 high performance liquid chromatography system with fluorescence detection (excitation 270 nanometer and emission 330 nanometer).
Compound `COC(=O)N[C@H](C(=O)N[C@H](c1ccc([C@@H](CO)N(CCC(C)(C)C)S(=O)(=O)c2ccc(N)cc2)s1)C(F)(F)F)C(c1ccccc1)c1ccccc1` [Example 44, N-[(1S)-1-{5-[(1R)-1-{[(4-aminophenyl)sulfonyl](3,3-dimethylbutyl)amino}-2-hydroxyethyl]thiophen-2-yl}-2,2,2-trifluoroethyl]-Nα-(methoxycarbonyl)-β-phenyl-L-phenylalaninamide] has an IC50 of 0.196 nM. `[2H]C([2H])([2H])C(N([C@H](CO)c1ccc([C@@H](NC(=O)[C@@H](NC(=O)OC)C(c2ccccc2)c2ccccc2)C(F)(F)F)s1)S(=O)(=O)c1ccc(N)cc1)C([2H])([2H])[2H]` [Example 47, N-[(1S)-1-{5-[(1R)-1-{[(4-aminophenyl)sulfonyl][(1,1,1,3,3,3-^2H6)propan-2-yl]amino}-2-hydroxyethyl]thiophen-2-yl}-2,2,2-trifluoroethyl]-Nα-(methoxycarbonyl)-β-phenyl-L-phenylalaninamide] showed an IC50 of 33.7 nM. `COC(=O)N[C@H](C(=O)N[C@H](c1ccc([C@@H](CO)N(C(C)C)S(=O)(=O)c2ccc(N)s2)s1)C(F)(F)F)C(c1ccccc1)c1ccccc1` [Example 50, N-[(1S)-1-{5-[(1R)-1-{[(5-aminothiophen-2-yl)sulfonyl](propan-2-yl)amino}-2-hydroxyethyl]thiophen-2-yl}-2,2,2-trifluoroethyl]-Nα-(methoxycarbonyl)-β-phenyl-L-phenylalaninamide] gave an IC50 of 121 nM. Compound `COC(=O)N[C@H](C(=O)N[C@H](c1ccc([C@@H](CO)N(CCC(C)(C)C)S(=O)(=O)c2ccn3ccnc3c2)s1)C(F)(F)F)C(c1ccccc1)c1ccccc1` [Example 51, N-[(1S)-1-(5-{(1R)-1-[(3,3-dimethylbutyl)(imidazo[1,2-c]pyridin-7-ylsulfonyl)amino]-2-hydroxyethyl}thiophen-2-yl)-2,2,2-trifluoroethyl]-Nα-(methoxycarbonyl)-β-phenyl-L-phenylalaninamide] has an IC50 of 17.5 nM. `COC(=O)N[C@H](C(=O)N[C@H](c1ccc([C@@H](CO)N(CCC(C)(C)C)S(=O)(=O)c2cc(F)c(CO)c(F)c2)s1)C(F)(F)F)C(c1ccccc1)c1ccccc1` [Example 52, N-[(1S)-1-(5-{(1R)-1-[{[3,5-difluoro-4-(hydroxymethyl)phenyl]sulfonyl}(3,3-dimethylbutyl)amino]-2-hydroxyethyl}thiophen-2-yl)-2,2,2-trifluoroethyl]-Nα-(methoxycarbonyl)-β-phenyl-L-phenylalaninamide] showed an IC50 of 2 nM. In the case of `COC(=O)N[C@H](C(=O)N[C@H](c1ccc([C@@H](CO)N(CCC(C)(C)C)S(=O)(=O)c2ccc(CO)cc2)s1)C(F)(F)F)C(c1ccccc1)c1ccccc1` [Example 53, N-[(1S)-1-(5-{(1R)-1-[(3,3-dimethylbutyl){[4-(hydroxymethyl)phenyl]sulfonyl}amino]-2-hydroxyethyl}thiophen-2-yl)-2,2,2-trifluoroethyl]-Nα-(methoxycarbonyl)-β-phenyl-L-phenylalaninamide], the IC50 is reported as 0.156 nM. With `COC(=O)N[C@H](C(=O)N[C@H](c1ccc([C@@H](CO)N(CCC(C)(C)C)S(=O)(=O)c2cc3ccccc3[nH]2)s1)C(F)(F)F)C(c1ccccc1)c1ccccc1` [Example 55, N-[(1S)-1-(5-{(1R)-1-[(3,3-dimethylbutyl)(1H-indol-2-ylsulfonyl)amino]-2-hydroxyethyl}thiophen-2-yl)-2,2,2-trifluoroethyl]-Nα-(methoxycarbonyl)-β-phenyl-L-phenylalaninamide] the IC50 was 45.8 nM. `COC(=O)N[C@H](C(=O)N[C@H](c1ccc([C@@H](CO)N(CCC(C)(C)C)S(=O)(=O)c2ccc(CO)c(C(F)(F)F)c2)s1)C(F)(F)F)C(c1ccccc1)c1ccccc1` [Example 56, N-[(1S)-1-(5-{(1R)-1-[(3,3-dimethylbutyl){[4-(hydroxymethyl)-3-(trifluoromethyl)phenyl]sulfonyl}amino]-2-hydroxyethyl}thiophen-2-yl)-2,2,2-trifluoroethyl]-Nα-(methoxycarbonyl)-β-phenyl-L-phenylalaninamide] showed an IC50 of 59.4 nM. `COC(=O)N[C@H](C(=O)N[C@H](c1ccc([C@@H](CO)N(CCC(C)(C)C)S(=O)(=O)c2ccc(N)cn2)s1)C(F)(F)F)C(c1ccccc1)c1ccccc1` [Example 57, N-[(1S)-1-{5-[(1R)-1-{[(5-aminopyridin-2-yl)sulfonyl](3,3-dimethylbutyl)amino}-2-hydroxyethyl]thiophen-2-yl}-2,2,2-trifluoroethyl]-Nα-(methoxycarbonyl)-β-phenyl-L-phenylalaninamide] was tested, and the IC50 was 1.32 nM. With `COC(=O)N[C@H](C(=O)N[C@H](c1ccc([C@@H](CO)N(CCC(C)(C)C)S(=O)(=O)c2cccc3[nH]ccc23)s1)C(F)(F)F)C(c1ccccc1)c1ccccc1` [Example 59, N-[(1S)-1-(5-{(1R)-1-[(3,3-dimethylbutyl)(1H-indol-4-ylsulfonyl)amino]-2-hydroxyethyl}thiophen-2-yl)-2,2,2-trifluoroethyl]-Nα-(methoxycarbonyl)-β-phenyl-L-phenylalaninamide] the IC50 was 4.22 nM. For `COC(=O)N[C@H](C(=O)N[C@H](c1ccc([C@@H](CO)N(CC(C)C)S(=O)(=O)c2ccc(N)cc2)s1)C(F)(F)F)C(c1ccccc1)c1ccccc1` [Example 60, N-[(1S)-1-{5-[(1R)-1-{[(4-aminophenyl)sulfonyl](2-methylpropyl)amino}-2-hydroxyethyl]thiophen-2-yl}-2,2,2-trifluoroethyy]-Nα-(methoxycarbonyl)-β-phenyl-L-phenylalaninamide], the IC50 was 2.01 nM. `COC(=O)N[C@H](C(=O)N[C@@H](c1ccc([C@@H](CO)N(CC(C)C)S(=O)(=O)c2ccc(N)cc2)s1)C(F)(F)F)C(c1ccccc1)c1ccccc1` [Example 61, N-[(1R)-1-{5-[(1R)-1-{[(4-aminophenyl)sulfonyl](2-methylpropyl)amino}-2-hydroxyethyl]thiophen-2-yl}-2,2,2-trifluoroethyl]-Nα-(methoxycarbonyl)-β-phenyl-L-phenylalaninamide] gave an IC50 of 23 nM. `CCN([C@H](CO)c1ccc([C@@H](NC(=O)[C@@H](NC(=O)OC)C(c2ccccc2)c2ccccc2)C(F)(F)F)s1)S(=O)(=O)c1ccc(N)cc1` [Example 62] showed an IC50 of 18.5 nM. In the case of `COC(=O)N[C@H](C(=O)N[C@H](c1ccc([C@@H](CO)N(CC(C)C)S(=O)(=O)c2ccc(N)cc2)s1)C1CC1)C(c1ccccc1)c1ccccc1` [Example 63, N-[(S)-{[4(1R)-1-{[(4-aminophenyl)sulfonyl](2-methylpropyl)amino}-2-hydroxyethyl]thiophen-2-yl}(cyclopropyl)methyl]-Nα-(methoxycarbonyl)-β-phenyl-L-phenylalaninamide], the IC50 is reported as 3.98 nM. In the case of `COC(=O)N[C@H](C(=O)NC(C)(C)c1ccc(C(CO)N(CCC(C)C)S(=O)(=O)c2ccccc2)s1)C(c1ccccc1)c1ccccc1` (stereo partly drawn) [Example 64], the IC50 is reported as 6.48 nM. Compound `COC(=O)N[C@H](C(=O)N[C@H](c1ccc([C@@H](CO)N(C(C)C)S(=O)(=O)c2ccc(CO)cc2)s1)C(F)(F)F)C(c1ccccc1)c1ccccc1` [Example 65, Nα-(methoxycarbonyl)-β-phenyl-N-[(1S)-2,2,2-trifluoro-1-(5-{(1R)-2-hydroxy-1-[{[4-(hydroxymethyl)phenyl]sulfonyl}(propan-2-yl)amino]ethyl}thiophen-2-yl)ethyl]-L-phenylalaninamide] has an IC50 of 0.18 nM. In the case of `COC(=O)Nc1ccc(S(=O)(=O)N(CCC(C)(C)C)[C@H](CO)c2ccc([C@@H](NC(=O)[C@@H](NC(=O)OC)C(c3ccccc3)c3ccccc3)C(F)(F)F)s2)cc1` [Example 70, N-[(1S)-1-(5-{1-[(3,3-dimethylbutyl)({4-[(methoxycarbonyl)amino]phenyl}sulfonyl)amino]-2-hydroxyethyl}thiophen-2-yl)-2,2,2-trifluoroethyl]-Nα-(methoxycarbonyl)-β-phenyl-L-phenylalaninamide], the IC50 is reported as 3.16 nM. Work on `COC(=O)N[C@H](C(=O)N[C@H](c1ccc([C@@H](CO)N(CCC(C)(C)C)S(=O)(=O)c2ccc3nccn3c2)s1)C(F)(F)F)C(c1ccccc1)c1ccccc1` [Example 71, N-[(1S)-1-(5-{(1R)-1-[(3,3-dimethylbutyl)(imidazo[1,2-a]pyridin-6-ylsulfonyl)amino]-2-hydroxyethyl}thiophen-2-yl)-2,2,2-trifluoroethyl]-Nα-(methoxycarbonyl)-β-phenyl-L-phenylalaninamide] yielded an IC50 of 6.64 nM. Compound `COC(=O)N[C@H](C(=O)N[C@H](c1ccc([C@@H](CO)N(CCC(C)(C)C)S(=O)(=O)c2ccc3ncccc3c2)s1)C(F)(F)F)C(c1ccccc1)c1ccccc1` [Example 73, Methyl [(2S)-1-{[(1S)-1-(5-{(1R)-1-[(3,3-dimethylbutyl)(quinolin-6-ylsulfonyl)amino]-2-hydroxyethyl}thiophen-2-yl)-2,2,2-trifluoroethyl]amino}-1-oxo-3,3-diphenylpropan-2-yl]carbamate] has an IC50 of 2.03 nM. In the case of `COC(=O)N[C@H](C(=O)N[C@H](c1ccc([C@@H](CO)N(CCC(C)(C)C)S(=O)(=O)c2ccc3nc[nH]c3c2)s1)C(F)(F)F)C(c1ccccc1)c1ccccc1` [Example 74, N-[(1S)-1-(5-{(1R)-1-[(1H-benzimidazol-6-ylsulfonyl)(3,3-dimethylbutyl)amino]-2-hydroxyethyl}thiophen-2-yl)-2,2,2-trifluoroethyl]-Nα-(methoxycarbonyl)-β-phenyl-L-phenylalaninamide], the IC50 is reported as 0.45 nM. For `COC(=O)N[C@H](C(=O)N[C@@H](C)c1ccc([C@@H](CO)N(C(C)C)S(=O)(=O)c2ccc(N)cc2)s1)C(c1ccccc1)c1ccccc1` [Example 75, N-[(1S)-1-{5-[(1R)-1-{[(4-aminophenyl)sulfonyl](propan-2-yl)amino}-2-hydroxyethyl]thiophen-2-yl}ethyl]-Nα-(methoxycarbonyl)-β-phenyl-L-phenylalaninamide], the IC50 was 7.89 nM.

Source: patent US9133157B2, “HIV protease inhibitors” (Merck Canada Inc., priority 2011, dated 2015)
